In article PMC11356819 (Molecules, 2024):

Key:
[1] = PET biodistribution in healthy mice; type: in vivo, C57BL/6 mice
Procedure: The in vivo stability, whole-body biodistribution and excretory pathways of [^18F]4 were investigated by small animal PET imaging in healthy C57BL/6 mice (Figure 5). […] In contrast, renal excretion was negligible, with very low radioactivity accumulation in the urinary bladder. Background uptake into muscles and other tissues was also low, with maximum SUVbw values of 52 ± 6 after 16 min followed by a decline to 18 ± 2 after 120 min. […] Nevertheless, while limited BBB penetrance might be an issue in patients with an intact BBB, brain tumors like gliomas are often associated with partial BBB disruption, which could facilitate tumor delivery of the probe. […] With this in mind and based on the reasonable in vivo stability and low background uptake, the tumor accumulation and mIDH-selectivity of [^18F]4 were further investigated in a subcutaneous tumor model.
All experiments were carried out in accordance with the EU directive 2010/63/EU for animal experiments and the German Animal Welfare Act (TierSchG, 2006) and were approved by the regional authorities (LANUV NRW; 81-02.04.2022.A442). Six male CB17-SCID mice and four male C57BL/6 mice (Janvier Labs, Le Genest-Saint-Isle, France) were housed in groups in individually ventilated cages (Allentown LLC, Allentown, NJ, USA) in a temperature- and humidity-controlled room (20 ± 2 °C, 50–60% humidity) on a 12:12 h light–dark cycle. Throughout the experiments, the animals had ad libitum access to water and food.
(§1) The mice were anesthetized with isoflurane (5% for induction, 2% for maintenance) in O2/air (3:7), and a catheter for tracer injection was inserted into the lateral tail vein. They were placed on an animal holder (Medres, Cologne, Germany) and fixed with a tooth bar in a respiratory mask. Body temperature was maintained at 37 °C by warming the animal bed. Eyes were protected from drying with Bepanthen eye and nose ointment (Bayer, Leverkusen, Germany). Respiratory rate was monitored and maintained at around 40–60 breaths per minute by adjusting the isoflurane concentration. A PET scan in list mode was conducted using a Focus 220 micro PET scanner (CTI-Siemens, Erlangen, Germany) with a resolution at the center of the field of view of 1.4 mm. Data acquisition started with intravenous tracer injection and ended after 120 min. This was followed by a 10 min transmission scan using a ^57Co point source for attenuation correction. After the scan was completed, the catheter was removed and the animals were allowed to wake up in their home cage. Data were histogrammed in three ways: (1) 4 × 30 min frames for visual display, (2) 28 frames (2 × 1 min, 2 × 2 min, 6 × 4 min, 18 × 5 min) for determination of time–activity curves, (3) 53 frames (12 × 10 s, 6 × 30 s, 15 × 1 min, 20 × 5 min) for kinetic modelling. Full 3D rebinning was followed by an iterative OSEM3D/MAP reconstruction algorithm with attenuation and decay correction. The resulting voxel sizes were 0.47 mm × 0.47 mm × 0.80 mm. All further analysis was performed with the software VINCI 5.21 (Max Planck Institute for Metabolism Research, Cologne, Germany). Standardized uptake values based on body weight (SUVbw) were determined according to the following equation: SUVbw = radioactivity [Bq/g] × body weight [g] × 100/injected dose [Bq]. Statistical analysis of the results was performed with a 2-way analysis of variance (ANOVA) followed by Sidak’s multiple comparison test to identify significant differences between the two tumor types.

U87-WT tumors = assay: PET imaging and 2TCM kinetic modelling of subcutaneous U87-WT tumors; type: in vivo
Excerpt: The in vivo tumor uptake and mIDH selectivity of [^18F]4 were investigated by small animal PET imaging in CB17-SCID mice bearing subcutaneous U87-WT and U87-mIDH tumors, which were implanted in the right and left shoulder region, respectively (Figure 6).
Although the use of an image-derived input function instead of an invasive arterial input function could introduce some degree of systematic bias (due to, e.g., a lack of correction for spill-over and metabolism), this should affect the parameter estimation for both tumors in a given animal in the same manner and therefore have little impact on inter-tumor comparisons.
Six male CB17-SCID mice (24–26 g) were used for the subcutaneous tumor model. Twenty-four hours before tumor implantation, the animals were injected (i.p.) with 20 µL anti-asialo GM1 rabbit (Fujifilm Wako Chemicals Europe GmbH, Neuss, Germany) in 0.9% NaCl (total volume: 100 µL) to promote tumor cell survival and growth through a temporary reduction in natural killer cell activity. For tumor inoculation, suspensions of 5 × 10^6 tumor cells in 75 µL culture medium and 75 µL Corning Matrigel (Merck, Darmstadt, Germany) were injected subcutaneously into the right (U87-WT cells) and left (U87-mIDH cells) shoulder region.
as §1, with “mm.” for “mm. All further analysis was performed with the software VINCI 5.21 (Max Planck Institute for Metabolism Research, Cologne, Germany). Standardized uptake values based on body weight (SUVbw) were determined according to the following equation: SUVbw = radioactivity [Bq/g] × body weight [g] × 100/injected dose [Bq]. Statistical analysis of the results was performed with a 2-way analysis of variance (ANOVA) followed by Sidak’s multiple comparison test to identify significant differences between the two tumor types.”

Structure (SMILES): COc1cc(NCc2cc3cc([18F])ccc3[nH]c2=O)ccc1C#N [[^18F]4]
- max. SUVbw liver ([1]; after 3 min, i.v., n = 4): 304 ± 54
- maximum SUVbw muscles and other tissues (background) ([1]; after 16 min): 52 ± 6
- SUVbw bone ([1]; after 120 min): 67 ± 8
- SUVbw muscles and other tissues (background) ([1]; after 120 min): 18 ± 2
- max. SUVbw intestine ([1]; after 120 min, i.v., n = 4): 5344 ± 1693
- excretory pathway ([1]; mouse, in vivo): almost exclusive hepatobiliary excretion
- renal excretion ([1]; mouse, in vivo): negligible
- brain uptake of radioactivity ([1]; throughout all measurements): very low
- Ratio (WT/mIDH) of SUVbw (U87-WT tumors; 0–30 min): 1.1
- SUVbw U87-WT (U87-WT tumors; 0–30 min): 35 ± 4
- Ratio (WT/mIDH) of SUVbw (U87-WT tumors; 30–60 min): 1.7
- SUVbw U87-WT (U87-WT tumors; 30–60 min): 42 ± 9
- Ratio (WT/mIDH) of SUVbw (U87-WT tumors; 60–90 min): 1.9
- SUVbw U87-WT (U87-WT tumors; 60–90 min): 36 ± 10
- Ratio (WT/mIDH) of SUVbw (U87-WT tumors; 90–120 min): 1.9
- SUVbw U87-WT (U87-WT tumors; 90–120 min): 30 ± 10
- K1 (U87-WT tumors; U87-WT tumor, 2TCM, n = 5): 0.174 ± 0.068 mL/ccm/min
- K1/k2 (U87-WT tumors; U87-WT tumor, 2TCM, n = 5): 0.345 ± 0.172 mL/ccm
- VS (specific distribution volume) (U87-WT tumors; U87-WT tumor, 2TCM, n = 5): 0.576 ± 0.143 mL/ccm
- VT (total distribution volume) (U87-WT tumors; U87-WT tumor, 2TCM, n = 5): 0.921 ± 0.250 mL/ccm
- k2 (U87-WT tumors; U87-WT tumor, 2TCM, n = 5): 0.553 ± 0.238 min⁻¹
- k3 (U87-WT tumors; U87-WT tumor, 2TCM, n = 5): 0.089 ± 0.059 min⁻¹
- k3/k4, BPND (non-displaceable binding potential) (U87-WT tumors; U87-WT tumor, 2TCM, n = 5): 1.874 ± 0.653 1/1
- k4 (U87-WT tumors; U87-WT tumor, 2TCM, n = 5): 0.044 ± 0.022 min⁻¹
- max. SUVbw U87-WT tumors (U87-WT tumors; after 38 min, n = 3): 45 ± 8
